Test: xn = mol fraction of the nth substance listed
Conditions: Liquid, Vibrating tube method

CCCCn1cc[n+](C)c1.F[B-](F)(F)F [1-butyl-3-methylimidazolium tetrafluoroborate] + CCO
Conditions	mass density [kg/m3]
348.15 K, 20740 kPa, x1 = 0.9152	1174.39
348.15 K, 20870 kPa, x1 = 1	1185.63
348.15 K, 21630 kPa, x1 = 0.3147	1023.15
348.15 K, 25140 kPa, x1 = 0.9152	1176.67
348.15 K, 25380 kPa, x1 = 0.0701	858.25
348.15 K, 25410 kPa, x1 = 0.7452	1149.62
348.15 K, 25430 kPa, x1 = 0.5384	1104.11
348.15 K, 25850 kPa, x1 = 1	1188.16
348.15 K, 26120 kPa, x1 = 0.3147	1025.95
348.15 K, 29980 kPa, x1 = 0.9152	1179.1
348.15 K, 30070 kPa, x1 = 0.7452	1152.07
348.15 K, 30110 kPa, x1 = 1	1190.19
348.15 K, 30220 kPa, x1 = 0.0701	861.8
348.15 K, 30550 kPa, x1 = 0.3147	1028.55
348.15 K, 30670 kPa, x1 = 0.5384	1107
348.15 K, 35070 kPa, x1 = 0.9152	1181.59
348.15 K, 35110 kPa, x1 = 1	1192.88
348.15 K, 35140 kPa, x1 = 0.7452	1154.63
348.15 K, 35170 kPa, x1 = 0.0701	865.16
348.15 K, 35620 kPa, x1 = 0.5384	1109.59
348.15 K, 35630 kPa, x1 = 0.3147	1031.33
348.15 K, 39560 kPa, x1 = 0.5384	1111.54
348.15 K, 39610 kPa, x1 = 1	1194.77
348.15 K, 39740 kPa, x1 = 0.9152	1183.8
348.15 K, 39940 kPa, x1 = 0.7452	1156.96
348.15 K, 40010 kPa, x1 = 0.3147	1033.56
348.15 K, 40030 kPa, x1 = 0.0701	868.18
373.15 K, 470 kPa, x1 = 1	1157.24
373.15 K, 510 kPa, x1 = 0.0701	812.28
373.15 K, 520 kPa, x1 = 0.7452	1117.1
373.15 K, 750 kPa, x1 = 0.5384	1069.65
373.15 K, 780 kPa, x1 = 0.9152	1145.53
373.15 K, 810 kPa, x1 = 0.3147	987.83
373.15 K, 5060 kPa, x1 = 0.5384	1072.77
373.15 K, 5090 kPa, x1 = 0.7452	1120.2
373.15 K, 5140 kPa, x1 = 0.9152	1148.26
373.15 K, 5350 kPa, x1 = 1	1160.25
373.15 K, 5790 kPa, x1 = 0.0701	818.18
373.15 K, 5820 kPa, x1 = 0.3147	992.08
373.15 K, 10070 kPa, x1 = 0.5384	1076.3
373.15 K, 10080 kPa, x1 = 1	1163.09
373.15 K, 10570 kPa, x1 = 0.9152	1151.58
373.15 K, 10610 kPa, x1 = 0.7452	1123.82
373.15 K, 10950 kPa, x1 = 0.3147	996.25
373.15 K, 11040 kPa, x1 = 0.0701	823.77
373.15 K, 15080 kPa, x1 = 0.9152	1154.27
373.15 K, 15130 kPa, x1 = 0.0701	827.92
373.15 K, 15340 kPa, x1 = 0.5384	1079.9
373.15 K, 15710 kPa, x1 = 1	1166.39
373.15 K, 15730 kPa, x1 = 0.3147	999.95
373.15 K, 15840 kPa, x1 = 0.7452	1127.11
373.15 K, 19860 kPa, x1 = 0.3147	1003.02
373.15 K, 20090 kPa, x1 = 0.7452	1129.7
373.15 K, 20540 kPa, x1 = 0.9152	1157.45
373.15 K, 20610 kPa, x1 = 0.5384	1083.37
373.15 K, 20970 kPa, x1 = 1	1169.38
373.15 K, 21220 kPa, x1 = 0.0701	833.79
373.15 K, 24670 kPa, x1 = 0.9152	1159.79
373.15 K, 25130 kPa, x1 = 0.0701	837.37
373.15 K, 25460 kPa, x1 = 0.7452	1132.84
373.15 K, 25820 kPa, x1 = 1	1172.07
373.15 K, 25930 kPa, x1 = 0.5384	1086.76
373.15 K, 25990 kPa, x1 = 0.3147	1007.35
373.15 K, 29760 kPa, x1 = 0.9152	1162.61
373.15 K, 30010 kPa, x1 = 0.5384	1089.27
373.15 K, 30070 kPa, x1 = 0.7452	1135.43
373.15 K, 30120 kPa, x1 = 1	1174.39
373.15 K, 30260 kPa, x1 = 0.0701	841.81
373.15 K, 30670 kPa, x1 = 0.3147	1010.47
373.15 K, 35030 kPa, x1 = 0.5384	1092.26
373.15 K, 35180 kPa, x1 = 0.7452	1138.19
373.15 K, 35220 kPa, x1 = 0.3147	1013.34
373.15 K, 35520 kPa, x1 = 0.0701	846.1
373.15 K, 35530 kPa, x1 = 1	1177.22
373.15 K, 36740 kPa, x1 = 0.9152	1166.35
373.15 K, 39820 kPa, x1 = 0.3147	1016.1
373.15 K, 39820 kPa, x1 = 1	1179.41
373.15 K, 39840 kPa, x1 = 0.0701	849.4
373.15 K, 39870 kPa, x1 = 0.9152	1167.99
373.15 K, 39920 kPa, x1 = 0.7452	1140.63
373.15 K, 39940 kPa, x1 = 0.5384	1095.08
398.15 K, 860 kPa, x1 = 0.9152	1128.45
398.15 K, 870 kPa, x1 = 1	1141.05
398.15 K, 920 kPa, x1 = 0.5384	1049.06
398.15 K, 940 kPa, x1 = 0.7452	1098.62
398.15 K, 960 kPa, x1 = 0.3147	966.26
398.15 K, 1010 kPa, x1 = 0.0701	788.85
398.15 K, 5060 kPa, x1 = 0.5384	1052.44
398.15 K, 5120 kPa, x1 = 0.7452	1101.74
398.15 K, 5750 kPa, x1 = 0.0701	795.42
398.15 K, 5840 kPa, x1 = 0.9152	1131.83
398.15 K, 6350 kPa, x1 = 0.3147	971.33
398.15 K, 6670 kPa, x1 = 1	1144.53
398.15 K, 9630 kPa, x1 = 0.9152	1134.36
398.15 K, 10070 kPa, x1 = 0.7452	1105.35
398.15 K, 10150 kPa, x1 = 0.0701	801.14
398.15 K, 10420 kPa, x1 = 0.5384	1056.68
398.15 K, 10490 kPa, x1 = 1	1147.07
398.15 K, 10930 kPa, x1 = 0.3147	975.46
398.15 K, 15030 kPa, x1 = 0.5384	1060.22
398.15 K, 15080 kPa, x1 = 0.7452	1108.88
398.15 K, 15110 kPa, x1 = 0.0701	807.16
398.15 K, 15620 kPa, x1 = 0.3147	979.51
398.15 K, 15730 kPa, x1 = 1	1150.32
398.15 K, 16470 kPa, x1 = 0.9152	1138.81
398.15 K, 19970 kPa, x1 = 0.5384	1063.89
398.15 K, 20040 kPa, x1 = 0.9152	1141.07
398.15 K, 20150 kPa, x1 = 0.3147	983.26
398.15 K, 20640 kPa, x1 = 0.7452	1112.68
398.15 K, 20740 kPa, x1 = 0.0701	813.42
398.15 K, 20980 kPa, x1 = 1	1153.78
398.15 K, 24980 kPa, x1 = 0.5384	1067.49
398.15 K, 25120 kPa, x1 = 0.9152	1144.22
398.15 K, 25130 kPa, x1 = 0.0701	817.89
398.15 K, 25140 kPa, x1 = 1	1156.3
398.15 K, 25170 kPa, x1 = 0.3147	987.21
398.15 K, 25370 kPa, x1 = 0.7452	1115.8
398.15 K, 30030 kPa, x1 = 0.5384	1070.98
398.15 K, 30280 kPa, x1 = 0.7452	1118.94
398.15 K, 30410 kPa, x1 = 0.3147	991.12
398.15 K, 30450 kPa, x1 = 0.9152	1147.45
398.15 K, 30850 kPa, x1 = 0.0701	823.16
398.15 K, 30890 kPa, x1 = 1	1159.52
398.15 K, 35070 kPa, x1 = 0.5384	1074.35
398.15 K, 35140 kPa, x1 = 0.7452	1121.93
398.15 K, 35160 kPa, x1 = 0.3147	994.46
398.15 K, 35740 kPa, x1 = 0.9152	1150.56
398.15 K, 35810 kPa, x1 = 1	1162.4
398.15 K, 35860 kPa, x1 = 0.0701	827.28
398.15 K, 39560 kPa, x1 = 1	1164.38
398.15 K, 39850 kPa, x1 = 0.3147	997.59
398.15 K, 39860 kPa, x1 = 0.9152	1152.93
398.15 K, 39920 kPa, x1 = 0.7452	1124.78
398.15 K, 39940 kPa, x1 = 0.5384	1077.48
398.15 K, 39990 kPa, x1 = 0.0701	830.32

Reference: the NIST ThermoML archive (doi:10.1007/s10765-008-0410-4)
